{"source": "patent US10453555B2", "about": "“Parameterizing cell-to-cell regulatory heterogeneities via stochastic transcriptional profiles” (University of Virginia Patent Foundation, priority 2015, dated 2019)", "key": {"p110δ": {"test_system": "p110δ", "assay": "IC87114 inhibitor validation: pAkt immunoblotting after lysophosphatidic acid stimulation", "type": "cell-based, human", "settings": "MCF10A-5E cells, 20 μM IC87114 pre-treatment for one hour, 10 μM lysophosphatidic acid for five minutes", "experimental": "For p110δ inhibitor experiments, 20 μM IC87114 (Calbiochem) was added to the assay medium and replaced every four days. IC87114 inhibitor validation was performed as follows. MCF10A-5E cells were plated in 6-well dishes and cultured in serum-free medium overnight. Wells were pre-treated with or without 20 μM IC87114 (Calbiochem) for one hour and then stimulated with 10 μM lysophosphatidic acid (Sigma-Aldrich) for five minutes. Cells were lysed as previously described (Wang et al. (2011) Proc Natl Acad U S A 108(40):E803-812), and lysates were probed for pAkt levels by immunoblotting.\nImmunoblotting was performed as follows. 30-50 μg of clarified cell extract was separated on an 8% or 10% SDS-PAGE gel and transferred to PVDF (Millipore). Membranes were blocked in 0.5×Odyssey blocking buffer (Licor) for one hour and incubated overnight at 4° C. in 0.5×Odyssey blocking buffer with 0.1% Tween containing one of the following primary antibodies: anti-p110δ (1:500; Santa Cruz Biotechnology) or anti-pAkt Ser473 (1:1000; Cell Signaling). Additionally, chicken anti-tubulin (1:20000; Abeam) was added to each primary solution as a loading control. […]"}, "MCF10A-5E cells": {"test_system": "MCF10A-5E cells", "assay": "Proliferation of acini in 3D culture (phospho-Rb whole-mount immunofluorescence)", "type": "cell-based, human", "settings": "shGFP control cells + 20 μM IC87114, replaced every four days", "experimental": "We next asked whether PIK3CD was specifically important for normal acinar morphogenesis. To eliminate the very-rare PIK3CD^hi subpopulation, p110δ was perturbed by two independent methods: RNA interference and the p110δ-specific small-molecule inhibitor, IC87114 (Knight et al. (2006) Cell 125(4):733-747) (FIG. 18A and FIG. 21). […] Primers were annealed at 95° C. in annealing buffer (10 mM Tris-HCl, 100 mM NaCl, 1 mM EDTA) for 5 min on a thermocycler and cooled slowly to room temperature by unplugging the instrument. Annealed primers were phosphorylated in vitro with T4 polynucleotide kinase (New England Biolabs) and then cloned into pLKO.1 puro (Moffat et al. (2006) Cell 124(6):1283-1298) that had been digested with EcoRI and AgeI. Lentiviruses were packaged and transduced into MCF10A-5E cells and selecting with 2 μg/ml puromycin as previously described (Wang et al. (2011) Proc Natl Acad Sci U S A 108(40):E803-812) to produce shGFP and shPIK3CD cell lines. MCF10A (shGFP, and shPIK3CD) cell lines were cultured in 3D as previously described (Debnath et al. (2003) Methods 30(3):256-268). […]\nWhole-mount immunofluorescence of shGFP and shPIK3CD cultures was performed as previously described (Wang et al. (2011) Proc Natl Acad U S A 108(40):E803-812). […] Samples were scored for pRb-positive acini as before (Wang et al. (2011) Proc Natl Acad Sci U S A 108(40):E803-812)."}}, "data": [{"smiles": "Cc1ccccc1-n1c(Cn2cnc3c(N)ncnc32)nc2cccc(C)c2c1=O", "note": "[IC87114]", "values": [{"measurement": "Akt phosphorylation (pAkt Ser473 levels) stimulated by p110δ", "setting": "p110δ", "value": "inhibits Akt phosphorylation"}, {"measurement": "proliferating (pRb-positive) acini", "setting": "MCF10A-5E cells", "value": "sustained proliferation"}]}]}
